Measurements from patent US12617784B2, “AKT inhibitor” (Nanjing Chia Tai Tianqing Pharmaceutical Co., Ltd., priority 2019, dated 2026).
Where a name gives a salt, the structure may show the parent alone.

Legend:
AKT1 = AKT1 (Homo sapiens, UniProt P31749); test: In vitro enzyme activity test (HTRF kinEASE TK), AKT1; type: biochemical; settings: ATP 2 μM, enzyme 0.6 ng/well, reaction 50 min
Procedure: (§1) Experimental Procedure 2.1 Preparation of Reagents
(§2) 1 mL 1× Kinase Reaction Buffer of Kinase AKT1, AKT2 and AKT3 contain 200 μL 5× Kinase Reaction Buffer, 5 μL 1 M MgCl2, 1 μL 1 M DTT and 794 μL ultrapure water.
(§3) In addition to the control wells, 4 μL of the diluted compound working solutions were added to all reaction wells.
(§4) b) 2 μL of the previously prepared TK-biotin substrate solution was added to all reaction wells.
(§5) c) 2 μL of the previously prepared enzyme solution was added to all reaction wells, except the negative wells. The volume of the negative well was filled with 2 μL of enzyme corresponding to 1× kinase reaction buffer. The plate was sealed with sealing film. After mixing, the plate was incubated at room temperature for 10 min to allow the compound and enzyme to fully combined.
(§6) d) 2 μL of ATP solution was added to all reaction wells to start the kinase reaction.
(§7) e) The test solution was prepared 5 min before the end of the kinase reaction.
(§8) f) After the kinase reaction was completed, 5 μL of diluted streptavidin-XL665 were added to all reaction wells, and immediately the diluted europium-labeled tyrosine kinase substrate antibody detection solution was added after mixing.
(§9) g) The plate was sealed and mixed well. […] The inhibition rate of each well was calculated through the fully active wells and the background signal wells, taking the average value in case of multiple wells. Meanwhile, the professional drawing analysis software PRISM 6.0 was used to fit the half maximal inhibitory concentration (IC50) of each test compound.

AKT3 = target: T1, AKT3 (Homo sapiens, UniProt Q9Y243); test: In vitro enzyme activity test (HTRF kinEASE TK), AKT3; type: biochemical; settings: enzyme 0.3 ng/well, reaction 50 min
T1 construct: purchased Invitrogen PV3185
T1 sequence (Q9Y243 whole entry): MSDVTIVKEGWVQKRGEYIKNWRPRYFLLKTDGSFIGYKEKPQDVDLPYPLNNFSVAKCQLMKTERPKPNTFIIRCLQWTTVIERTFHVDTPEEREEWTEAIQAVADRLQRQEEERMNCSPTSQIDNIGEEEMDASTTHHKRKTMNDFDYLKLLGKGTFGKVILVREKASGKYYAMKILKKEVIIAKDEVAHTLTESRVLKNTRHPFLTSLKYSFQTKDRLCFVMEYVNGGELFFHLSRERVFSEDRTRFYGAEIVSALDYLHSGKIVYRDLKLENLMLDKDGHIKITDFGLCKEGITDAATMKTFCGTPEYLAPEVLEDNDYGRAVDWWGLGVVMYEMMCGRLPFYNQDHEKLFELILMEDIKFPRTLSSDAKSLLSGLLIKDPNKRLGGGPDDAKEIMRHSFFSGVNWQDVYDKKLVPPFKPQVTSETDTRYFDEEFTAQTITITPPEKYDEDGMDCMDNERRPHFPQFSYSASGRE
Procedure: as §1, §2, §3, §4, §5, §6, §7, §8, §9

Chain of AKT1 (P31749 whole entry): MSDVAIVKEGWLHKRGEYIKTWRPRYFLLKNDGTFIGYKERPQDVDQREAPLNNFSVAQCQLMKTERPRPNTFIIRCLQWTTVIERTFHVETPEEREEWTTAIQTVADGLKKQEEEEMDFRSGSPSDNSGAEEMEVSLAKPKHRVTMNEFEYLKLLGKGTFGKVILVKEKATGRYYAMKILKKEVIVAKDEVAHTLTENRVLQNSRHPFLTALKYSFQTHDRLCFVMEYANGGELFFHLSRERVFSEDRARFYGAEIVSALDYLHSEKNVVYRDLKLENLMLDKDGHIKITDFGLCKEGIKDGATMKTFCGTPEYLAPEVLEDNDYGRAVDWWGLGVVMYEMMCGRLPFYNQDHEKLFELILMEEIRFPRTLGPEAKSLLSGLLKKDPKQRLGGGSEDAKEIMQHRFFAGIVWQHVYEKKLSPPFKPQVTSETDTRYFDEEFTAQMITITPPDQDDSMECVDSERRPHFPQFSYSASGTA

For `CC(C)NC[C@@H](C(=O)N1CCN(c2ncnc3c2[C@@H](C(F)(F)F)CC(=O)N3)CC1)c1ccc(Cl)cc1` (single isomer, unassigned) [Example 16 Isomer 1], the IC50 (AKT1) was 776 nM and the IC50 (AKT3) was 139 nM.

Work on `CC(C)NC[C@@H](C(=O)N1CCN(c2ncnc3c2[C@H](C(F)(F)F)CC(=O)N3)CC1)c1ccc(Cl)cc1` (single isomer, unassigned) [Example 16 Isomer 2] yielded an IC50 (AKT1) of 12 nM and an IC50 (AKT3) of 1 nM.

`CC(C)NC[C@@H](C(=O)N1CCN(c2ncnc3c2C[C@@H](C)C(=O)N3)CC1)c1ccc(Cl)cc1` (single isomer, unassigned) [Example 19 Isomer 1] was tested, and the IC50 (AKT1) was 82 nM and the IC50 (AKT3) was 18 nM.

`CC(C)NC[C@@H](C(=O)N1CCN(c2ncnc3c2C[C@H](C)C(=O)N3)CC1)c1ccc(Cl)cc1` (single isomer, unassigned) [Example 19 Isomer 2] showed an IC50 (AKT1) of 25 nM and an IC50 (AKT3) of 9.1 nM.

Compound `CC(C)NC[C@@H](C(=O)N1CCN(c2ncnc3c2[C@H](C)OC(=O)N3)CC1)c1ccc(Cl)cc1` (single isomer, unassigned) [Example 23 Isomer 1] has an IC50 (AKT1) of 1.5 nM and an IC50 (AKT3) of 0.19 nM.

`CC(C)NC[C@@H](C(=O)N1CCN(c2ncnc3c2[C@@H](C)OC(=O)N3)CC1)c1ccc(Cl)cc1` (single isomer, unassigned) [Example 23 Isomer 2] was tested, and the IC50 (AKT1) was 201 nM and the IC50 (AKT3) was 42 nM.

For `CC(C)NC[C@@H](C(=O)N1CCN(c2ncnc3c2[C@H](C)OC(=O)N3)CC1)c1ccc(Cl)cc1` (single isomer, unassigned) [Example 24 Isomer 1], the IC50 (AKT1) was 354 nM and the IC50 (AKT3) was 61 nM.

Compound `CC(C)NC[C@@H](C(=O)N1CCN(c2ncnc3c2N(C)CC(=O)N3)[C@H]2C[C@H]21)c1ccc(Cl)cc1` (single isomer, unassigned) [Example 27 Isomer 1] has an IC50 (AKT1) of 22 nM and an IC50 (AKT3) of 0.48 nM.

`CC(C)NC[C@@H](C(=O)N1C2CCC1CN(c1ncnc3c1[C@H](C)OC(=O)N3)C2)c1ccc(Cl)cc1` (single isomer, unassigned) [Example 32 Isomer 1] showed an IC50 (AKT1) of 0.63 nM and an IC50 (AKT3) of 0.41 nM.

`CC(C)NC[C@@H](C(=O)N1C2CCC1CN(c1ncnc3c1[C@@H](C)OC(=O)N3)C2)c1ccc(Cl)cc1` (single isomer, unassigned) [Example 32 Isomer 2] gave an IC50 (AKT1) of 25 nM and an IC50 (AKT3) of 9.8 nM.

For `CC(C)NC[C@@H](C(=O)N1CC2CCC(C1)N2c1ncnc2c1[C@H](C)OC(=O)N2)c1ccc(Cl)cc1` (single isomer, unassigned) [Example 33 Isomer 1], the IC50 (AKT1) was 1.6 nM and the IC50 (AKT3) was 0.2 nM.

`CC(C)NC[C@@H](C(=O)N1CC2CCC(C1)N2c1ncnc2c1[C@@H](C)OC(=O)N2)c1ccc(Cl)cc1` (single isomer, unassigned) [Example 33 Isomer 2] showed an IC50 (AKT1) of 260 nM and an IC50 (AKT3) of 55 nM.

`CC(C)NC[C@@H](C(=O)N1CCN(c2ncnc3c2[C@H](C)OC(=O)N3)[C@@H]2C[C@@H]21)c1ccc(Cl)cc1` (single isomer, unassigned) [Example 34 Isomer 1] gave an IC50 (AKT1) of 186 nM and an IC50 (AKT3) of 45 nM.

For `CC(C)NC[C@@H](C(=O)N1CCN(c2ncnc3c2[C@@H](C)OC(=O)N3)[C@@H]2C[C@@H]21)c1ccc(Cl)cc1` (single isomer, unassigned) [Example 34 Isomer 2], the IC50 (AKT1) was 613 nM and the IC50 (AKT3) was 89 nM.

Compound `CC(C)NC[C@@H](C(=O)N1CCN(c2ncnc3c2[C@@H](C)OC(=O)N3)[C@H]2C[C@H]21)c1ccc(Cl)cc1` (single isomer, unassigned) [Example 34 Isomer 3] has an IC50 (AKT1) of 429 nM and an IC50 (AKT3) of 232 nM.

In the case of `CC(C)NC[C@@H](C(=O)N1CCN(c2ncnc3c2[C@@H]2C[C@@H]2C(=O)N3)CC1)c1ccc(Cl)cc1` (single isomer, unassigned) [Example 40 Isomer 1], the IC50 (AKT1) is reported as 14 nM and the IC50 (AKT3) is reported as 12 nM.

With `CC(C)NC[C@@H](C(=O)N1CCN(c2ncnc3c2[C@H]2C[C@H]2C(=O)N3)CC1)c1ccc(Cl)cc1` (single isomer, unassigned) [Example 40 Isomer 2] the IC50 (AKT1) was 82 nM and the IC50 (AKT3) was 61 nM.

`CC(C)NC[C@@H](C(=O)N1CCN(c2ncnc3c2C(C)CC(=O)N3)CC1)c1ccc(Cl)cc1` (stereo partly drawn) [Example 1, 4-(4-((S)-2-(4-chlorophenyl)-3-(isopropylamino)propionyl)piperazin-1-yl)-5-methyl-5,8-dihydropyrido[2,3-d]pyrimidin-7(6H)-one] was tested, and the IC50 (AKT1) was 2.4 nM and the IC50 (AKT3) was 1.6 nM.

In the case of `CC(C)NC[C@@H](C(=O)N1CCN(c2ncnc3c2CCC(=O)N3)CC1)c1ccc(Cl)cc1` [Example 3, (S)-4-(4-(2-(4-chlorophenyl)-3-(isopropylamino)propionyl)piperazin-1-yl)-5,8-dihydropyrido[2,3-d]pyrimidin-7(6H)-one], the IC50 (AKT1) is reported as 52.4 nM and the IC50 (AKT3) is reported as 7.5 nM.

For `CC(C)NC[C@@H](C(=O)N1CCN(c2ncnc3c2[C@H](C)CC(=O)N3)[C@H](C)C1)c1ccc(Cl)cc1` [Example 7, (R)-4-((R)-4-((S)-2-(4-chlorophenyl)-3-(isopropylamino)propionyl)-2-methylpiperazin-1-yl)-5-methyl-5,8-dihydropyrido[2,3-d]pyrimidin-7(6H)-one], the IC50 (AKT1) was 26.4 nM and the IC50 (AKT3) was 7.4 nM.

In the case of `CC(C)NC[C@@H](C(=O)N1CCN(c2ncnc3c2[C@H](C)CC(=O)N3)C[C@H]1C)c1ccc(Cl)cc1` [Example 8, (R)-4-((R)-4-((S)-2-(4-chlorophenyl)-3-(isopropylamino)propionyl)-3-methylpiperazin-1-yl)-5-methyl-5,8-dihydropyrido[2,3-d]pyrimidin-7(6H)-one], the IC50 (AKT1) is reported as 28.7 nM and the IC50 (AKT3) is reported as 2.7 nM.

With `CC(C)NC[C@@H](C(=O)N1CC2CCC(C1)N2c1ncnc2c1[C@H](C)CC(=O)N2)c1ccc(Cl)cc1` [Example 11, (R)-4-(3-((S)-2-(4-chlorophenyl)-3-(isopropylamino)propionyl)-3,8-diazabicyclo[3.2.1]octan-8-yl)-5-methyl-5,8-dihydropyrido[2,3-d]pyrimidin-7(6H)-one] the IC50 (AKT1) was 3.5 nM and the IC50 (AKT3) was 0.25 nM.

`CC(C)NC[C@@H](C(=O)N1CCN(c2ncnc3c2[C@H](C)CC(=O)N3)CC12CC2)c1ccc(Cl)cc1` [Example 12, (R)-4-(4-((S)-2-(4-chlorophenyl)-3-(isopropylamino)propionyl)-4,7-diazaspiro[2.5]octan-7-yl)-5-methyl-5,8-dihydropyrido[2,3-d]pyrimidin-7(6H)-one] was tested, and the IC50 (AKT1) was 55.1 nM and the IC50 (AKT3) was 4.8 nM.

`CC(C)NC[C@@H](C(=O)N1C[C@@H]2CN(c3ncnc4c3[C@H](C)CC(=O)N4)C[C@@H]2C1)c1ccc(Cl)cc1` [Example 13 cis-isomer, cis-(5R)-4-(5-((S)-2-(4-chlorophenyl)-3-(isopropylamino)propionyl)hexahydropyrrole[3,4-c]pyrrole-2(1H)-yl)-5-methyl-5,8-dihydropyrido[2,3-d]pyrimidin-7(6H)-one] showed an IC50 (AKT1) of 285 nM and an IC50 (AKT3) of 6.6 nM.

`CC(C)NC[C@@H](C(=O)N1CCN(c2ncnc3c2CC(C)C(=O)N3)CC1)c1ccc(Cl)cc1` (stereo partly drawn) [Example 19, 4-(4-((S)-2-(4-chlorophenyl)-3-(isopropylamino)propionyl)piperazin-1-yl)-6-methyl-5,8-dihydropyrido[2,3-d]pyrimidin-7(6H)-one hydrochloride] showed an IC50 (AKT1) of 58.5 nM and an IC50 (AKT3) of 7.4 nM.

With `CC(C)NC[C@@H](C(=O)N1CCN(c2ncnc3c2N(C)CC(=O)N3)CC1)c1ccc(Cl)cc1` [Example 20, (S)-4-(4-(2-(4-chlorophenyl)-3-(isopropylamino)propionyl)piperazin-1-yl)-5-methyl-5,8-dihydropteridine-7(6H)-one hydrochloride] the IC50 (AKT1) was 1.1 nM and the IC50 (AKT3) was 0.4 nM.

`CC(C)NC[C@@H](C(=O)N1CCN(c2ncnc3c2C(C)OC(=O)N3)CC1)c1ccc(Cl)cc1` (stereo partly drawn) [Example 23, 5-(4-((S)-2-(4-chlorophenyl)-3-(isopropylamino)propionyl)piperazin-1-yl)-4-methyl-1,4-dihydro-2H-pyrimido[4,5-d][1,3]oxazin-2-one formate] was tested, and the IC50 (AKT1) was 6 nM and the IC50 (AKT3) was 1.2 nM.

For `CC(C)NC[C@@H](C(=O)N1CC2CCC(C1)N2c1ncnc2c1N(C)CC(=O)N2)c1ccc(Cl)cc1` [Example 26], the IC50 (AKT1) was 30 nM and the IC50 (AKT3) was 0.52 nM.

`CC(C)NC[C@@H](C(=O)N1CCN(c2ncnc3c2N(C)C(=O)CN3)CC1)c1ccc(Cl)cc1` [Example 35, (S)-4-(4-(2-(4-chlorophenyl)-3-(isopropylamino)propionyl)piperazin-1-yl)-5-methyl-7,8-dihydropteridine-6(5H)-one] was tested, and the IC50 (AKT1) was 146 nM and the IC50 (AKT3) was 212 nM.
